Where two headings read alike, the source gives them in different places. Marks after values point to notes of the source that are not given here. Values belong to the compound of their own block, whether it stands above or below them.
Legend:
human ETA receptors = target: T1, human ETA receptors (Homo sapiens, UniProt P25101); assay: Binding Test #1: inhibition of 125I-ET-1 binding to ETA receptors (TE 671 cell membranes); conditions: Table 3
T1 construct: endogenous in cells; host or cells: TE 671 cells (ATCC HTB 139)
T1 sequence (P25101 21-427): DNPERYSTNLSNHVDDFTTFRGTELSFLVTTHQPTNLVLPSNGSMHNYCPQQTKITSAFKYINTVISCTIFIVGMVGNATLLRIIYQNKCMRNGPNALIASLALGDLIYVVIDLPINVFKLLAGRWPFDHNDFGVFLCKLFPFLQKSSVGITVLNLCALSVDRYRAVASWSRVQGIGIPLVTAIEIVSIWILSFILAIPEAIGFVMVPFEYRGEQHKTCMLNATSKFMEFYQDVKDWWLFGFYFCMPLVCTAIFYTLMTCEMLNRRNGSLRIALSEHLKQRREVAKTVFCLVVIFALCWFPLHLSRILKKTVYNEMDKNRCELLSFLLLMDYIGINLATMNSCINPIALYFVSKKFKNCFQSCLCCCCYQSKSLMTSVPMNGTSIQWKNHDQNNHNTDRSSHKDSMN
Procedure, shortened: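 Membranes from TE 671 cells (up to 8 μg protein) incubated with ¹²⁵I-ET-1 and compound (1 nM–100 μM final) in 30 mM HEPES pH 7.4, 150 mM NaCl, 5 mM MgCl2, 0.5% bacitracin, 16–18 h at 4 °C or alternatively at 24 °C. Nonspecific binding with 80 nM ET-1; bound pellet gamma-counted, % inhibition calculated, usually triplicate.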

Papp (Table 4) = assay type: in vitro ADME
[1] = Oral half-life and peak plasma levels in rat; assay type: in vivo
Text: As used herein, bioavailability refers to the rate and extent of absorption. Methods for determining bioavailability are well known to those of skill in the art. For example, bioavailability of any of the compounds described herein can be determined empirically by administration of the compound to an animal, followed by taking blood samples over time and measuring the blood concentration of the compound. In vivo half life (t½) is defined as the time it takes for the concentration of the compound in the blood to be reduced by one-half. Estimations of the area under the curve for intravenous administration can be used to estimate the area under the curve for oral administration, yielding bioavailability data. See, e.q., Milo Gibal (1991) Biopharmaceutics and Pharmacology, 4th edition (Lea and Sediger).
Table 4 lists oral half-life, bioavailability, and in vivo activity of selected exemplary compounds. The in vivo activity was measured in a pulmonary hypertension model and is a measure of the activity of the compounds at selected dosages.

[2] = test system: Pulmonary Hypertension model; assay: Pulmonary hypertension model, in vivo efficacy; set-up: species or system rat; key to in vivo Efficacy: ++ effective at 5 mg/kg; − no effect at 5 mg/kg; + effective at 15 mg/kg
Protocol: As used herein, efficacy refers to the maximal effect that can be produced by a compound. Efficacy can be determined by methods known to those of skill in the art. For example, it can be determined by the properties of the compound and its receptor-effector system and is reflected in the plateau of the concentration-effect curve. In vivo efficacy refers to efficacy which is determined in an animal model. For example, in vivo efficacy of the compounds described herein can be determined by amelioration of hypoxia-induced pulmonary hypertension in rat. In this context, in vivo efficacy refers to the ability of a compound to restore an elevated pulmonary artery pressure to a normal value. […] J. Physiol. […] The in vivo activity was measured in a pulmonary hypertension model and is a measure of the activity of the compounds at selected dosages.

[3] = Stability of solutions, percent remaining by HPLC; assay type: physicochemical
[4] = Solubility in aqueous media
isolated vascular strips = conditions: contractile agent in isolated vascular strips; cited from earlier work
ETA receptor = conditions: cited from earlier work
ETB receptors = conditions: tissues in which ETB receptors predominate; cited from earlier work

ETA/ETB selectivity (human ETA receptors): 34000^∥
IC50 (human ETA receptors; † incubation at 24° C., read-out: ETA): 0.55 nM
Papp (cell printed as %) (Papp (Table 4)): 40%
Peak Plasma Levels ([1]; in vivo): 57 µg/mL
POt½ in Rat ([1]; oral): 8.6 h
Compound: CC(=O)c1cc(C)cc(C)c1NC(=O)c1sccc1S(=O)(=O)Nc1onc(C)c1Cl [N-(2-acetyl-4,6-dimethylphenyl)-3-(((4-chloro-3-methyl-5-isoxazolyl)amino)sulfonyl)-2-thiophenecarboxamide]
in vivo Efficacy (footnote e) ([2]; 0.3 mg/kg in vivo): ^eeffective at 0.3 mg/kg in vivo
in vivo Efficacy ([2]; Pulmonary Hypertension model): ++^e

percent remaining (HPLC) ([3]; 0.49 mg/mL, 1.5% PVP + 3.0% PG, 24 h): 90.0%
percent remaining (HPLC) ([3]; 0.51 mg/mL, 5% dextrose, 24 h): 99.4%
percent remaining (HPLC) ([3]; 0.51 mg/mL, normal saline, 24 h): 96.9%
percent remaining (HPLC) ([3]; 0.57 mg/mL, 0.75% PVP + 1.5% PG, 24 h): 74.4%
percent remaining (HPLC) ([3]; 20 mg/mL, 5% dextrose + 5% PG + citrate buffer, 0.3% w/v (pH 7.5), 26 h (4° C.)): 97.2%
percent remaining (HPLC) ([3]; 20 mg/mL, 5% dextrose + 5% buffer (pH 7.0), 24 h): 92.6%
percent remaining (HPLC) ([3]; 20 mg/mL, 5% dextrose + K-phosphate buffer, 2.5% w/v (pH 6), 24 h): 84.6%
percent remaining (HPLC) ([3]; 20 mg/mL, 5% dextrose + K-phosphate buffer, 2.5% w/v (pH 7), 20 h): 92.6%
percent remaining (HPLC) ([3]; 20 mg/mL, 5% dextrose + K-phosphate buffer, 2.5% w/v (pH 7.5), 24 h): 93.4%
percent remaining (HPLC) ([3]; 20 mg/mL, 5% dextrose + citrate buffer, 0.3% w/v (pH 7.5), 27 h (4° C.)): 96.6%
percent remaining (HPLC) ([3]; 20 mg/mL, 5% dextrose + citrate buffer, 0.3% w/v (pH 8), 21 h): 92.9%
percent remaining (HPLC) ([3]; 20 mg/mL, 5% dextrose, 24 h (13° C.)): 93.7%
percent remaining (HPLC) ([3]; 20 mg/mL, 5% dextrose, 25 h (10° C.)): 93.7%
percent remaining (HPLC) ([3]; 20 mg/mL, 10% dextrose + 10% PG + Na-phosphate buffer, 0.3% w/v (pH 7.5), 24 h): 90.7%
percent remaining (HPLC) ([3]; 20 mg/mL, 10% dextrose, 24 h): 93.4%
percent remaining (HPLC) ([3]; 30 mg/mL, 5% dextrose, 24 h): 92.2%
percent remaining (HPLC) ([3]; 30 mg/mL, 10% dextrose + 10% PG + citrate buffer, 0.3% w/v (pH 7.5), 24 h (4° C.)): 98.0%
percent remaining (HPLC) ([3]; 30 mg/mL, 20% sorbitol, 24 h): 93.2%
percent remaining (HPLC) ([3]; 100 mg/mL, 5% dextrose, 6 h): 93.0%
percent remaining (HPLC) ([3]; 100 mg/mL, 10% dextrose +10% PG + citrate buffer, 0.3% w/v (pH 7.5), 24 h): 94.2%
percent remaining (HPLC) ([3]; 100 mg/mL, 30% sorbitol, 24 h): 93.2%
percent remaining (HPLC) ([3]; mg/mL not given, 10% dextrose + 10% PG + Na-phosphate buffer, 0.3% w/v (pH 7.5), 24 h (4° C.)): 97.4%
percent remaining (HPLC) ([3]; mg/mL not given, 10% dextrose + 10% PG + Na-phosphate buffer, 0.3% w/v (pH 8), 24 h (4° C.)): 96.4%
percent remaining (HPLC) ([3]; mg/mL not given, 10% dextrose + 10% PG + citrate buffer, 0.3% w/v (pH 7.4), 24 h (4° C.)): 97.6%
percent remaining (HPLC) ([3]; mg/mL not given, 10% dextrose + 10% PG, 24 h (4° C.)): 97.6%
Compound: Cc1cc2c(cc1CC(=O)c1sccc1S(=O)(=O)Nc1onc(C)c1Cl)OCO2.[Na] [sodium]
stability compared to the sodium hydrogen phosphate salt ([3]; certain aqueous formulations): as stable as the sodium hydrogen phosphate salt
solubility compared to the neutral compound [4]: improved solubility over the neutral compound

Compound: endothelin-1: potent twenty-one amino acid peptide vasoconstrictor
EC50 (isolated vascular strips): 0.4 nM

Compound: cyclo(D-Glu-L-Ala-allo-D-lle-L-Leu-D-Trp) [BE-18257B]
IC50 (ETA receptor; aortic smooth muscle): 1400 nM
IC50 (ETA receptor; cultured aortic smooth muscle cells): 500 nM
IC50 (ETA receptor; ventricle membranes): 800 nM
concentration up to which binding is not inhibited (ETB receptors): > 100 µM
